# From patent US20210260057A1, “COMPOSITIONS AND METHODS TARGETING GLUTAMINE AND ITS METABOLISM FOR DIAGNOSING AND TREATING CANCER AND THERAPY-ASSOCIATED SIDE EFFECTS” (CEDARS-SINAI MEDICAL CENTER, priority 2018, published 2021)
# Several values for one entry are separate records, joined by “and”; a condition that tells them apart may be missing. Equal entries are not always repeated.
# How the values were obtained:
# RASAL3 mRNA in CAF = experiment: RASAL3 mRNA expression (rtPCR) in CAF; type: cell-based, human; conditions: 5-day treatment; Bic 10^−5 M, Enza 10^−5 M, R1881 10^−9 M, 5-Aza 5 mmol/L
# Method: (§1) RNA expression level. All real-time PCR assays were carried out using three technical replicates and three independent cDNA syntheses on a 7500 Real-Time PCR System (Applied Biosystems). Data were normalized using an internal control gene, either GAPDH or β-actin. Relative quantification of expression levels (RQ) was calculated using the ^2-ΔΔCt method.
# RASAL3 promoter = experiment: Methylation specific PCR of RASAL3 exon 2 in CAF; type: cell-based, human; conditions: CAF after treatment
# Method: (FIG. 13A) Quantitative rtPCR analysis of RASAL3 in NAF and CAF was performed following 5 day treatment with bicalutamide (Bic, 10^−5 M), enzalutamide (Enza, 10^−5 M), R1881 (10^−9 M), or 5-Azacytidine (5-Aza, […]). RASAL3 expression was normalized GAPDH expression. Data represent the mean±SEM. *P<0.05, ***P<0.001, and ****P<0.0001, by two-way ANOVA followed by multiple comparison. Results are the average of at least three independent experiments. (FIG. 13B) MS-PCR of the RASAL3 exon 2 methylation status in CAF after treatment with enzalutamide, R1881, 5-Azacytidine and bicalutamide was performed. The PCR products in the lanes marked “U” indicate unmethylated templates for RASAL3 gene, whereas the products in the lanes marked “M” indicate methylated templates. Data are representative of three independent experiments.
# primary CAF = experiment: Macropinocytosis assay (TMR-dextran uptake); type: cell-based, human; conditions: EIPA 25 μM, 5-Aza DC 5 μM (FIG. 9A)
# Method: Macropinocytosis assay. These were performed as described previously (Commisso C, Davidson S M, Soydaner-Azeloglu R G, Parker S J, Kamphorst J J, Hackett S, Grabocka E, Nofal M, Drebin J A, Thompson C B, et al. Macropinocytosis of protein is an amino acid supply route in Ras-transformed cells. Nature. 2013; 497(7451):633-7), briefly fibroblasts which were grown on cover slips, serum-starved for 18 hours. TMR-dextran (1 mg/ml; 70 kDa, […]), which is an established marker of macropinocytosis, was added to serum-free medium for 30 min at 37° C. for macropinosomes labeling (Commisso C, Davidson S M, Soydaner-Azeloglu R G, Parker S J, Kamphorst J J, Hackett S, Grabocka E, Nofal M, Drebin J A, Thompson C B, et al. Macropinocytosis of protein is an amino acid supply route in Ras-transformed cells. Nature. 2013; 497(7451):633-7). […] Images were captured using laser confocal scanning microscopy (Leica) and analyzed via LASX software. […] The fluorescence signals in the cells were imaged using FSX100 (Olympus, USA). To determine whether the internalized albumin is intracellularly degraded, we have utilized a self-quenching red fluorescent dye, where lysosomal proteases enable red fluorescence visualization. Cells were incubated in RPMI media containing DQ-BSA (10 μg/ml) for 30 min and washed twice with PBS and monitored by confocal microscopy.
# [1] = test system: prostate cancer (serum PSA); experiment: PSA response of PCa patients on androgen targeted therapy; type: in vivo, human; design: PSA on treatment: unit not given beside the values; conditions: for PSA on treatment: individual PCa patient on the listed Rx
# Description: Plasma glutamine level may be prognostic for ADT sensitivity. Considering the striking finding that glutamine can induce ADT resistance, we tested if glutamine concentrations can be associated with ADT sensitivity in prostate cancer patients. We measured blood plasma glutamine concentrations in 28 PCa patients that received ADT (Table 1). Of note, the specific androgen signaling-axis interventions in the patient pool included, androgen receptor antagonists: bicalutamide, enzalutamide, and apalutamide, as well as androgen synthesis inhibitors: leuprolide, goserelin, triptorelin, and abiraterone.
# CWR22Rv1 with CAF = experiment: 3D co-cultures of CAF-CWR22Rv1, neuroendocrine gene panel rtPCR; type: cell-based, human; conditions: in the context of enzalutamide, 3 days, glutamine free media, well below control levels, F test P<0.0001
# Method: (§2) 3D organotypic co-culture. A modified version of the 3D organotypic co-culture system was performed in a collagen matrix similar to that previously reported (Stark H J, Baur M, Breitkreutz D, Mirancea N, and Fusenig N E. Organotypic keratinocyte cocultures in defined medium with regular epidermal morphogenesis and differentiation. J Invest Dermatol. 1999; 112(5):681-91). Matrix were prepared by mixing five volumes of rat tail collagen with two volumes of matrigel in one volume of 10×DMEM medium (GE Healthcare Life Sciences), and one volume of FBS (Atlanta Biologicals). CWR22Rv1 and primary mouse prostatic fibroblasts (WT or RAS^V12) were combined in a 1:3 ratio in the matrix. Nylon squares were coated with collagen and placed on metal grids in a 6-well plate. Matrix plugs containing cells, formed in 96 well plates (150 μl), were transferred onto the nylon squares and media was added to the level of the nylon mesh. Following treatments, the cells were dissociated from the matrix with collagenase and dispase for FACS analysis.
# as §1
# CWR22Rv1 cells [2] = experiment: 3D organotypic co-culture, epithelial proliferation by FACS (EpCAM+/Ki67+); type: cell-based, human; conditions: 3D co-cultures of fibroblasts and CWR22Rv1; P<0.05 (GPNA), P<0.001 (BPTES)
# Method: as §2
# [3] = test system: human prostate cancer cells (CWR22Rv1); experiment: Gene expression in prostate cancer cells (FIG. 15A-D); type: cell-based; conditions: FIG. 15D
# PD1 and CD47 on CWR22Rv1 = experiment: FACS of immune checkpoint proteins in prostate cancer/fibroblast co-culture; type: cell-based, human; conditions: CWR22Rv1 co-cultured with wild type or CD105-knockout fibroblasts
# [4] = test system: prostate cancer epithelial cells; experiment: ALDH (stem marker) in prostate cancer epithelial cells; type: cell-based
# [5] = test system: Rasa13-KO mouse prostatic fibroblasts; experiment: MTT viability assay, Rasa13-KO fibroblasts; type: cell-based; conditions: 72 hrs incubation with EIPA, P<0.001
# Method: (§3) (FIG. 10A) The viability of CWR22Rv1 and mouse prostatic fibroblasts (Cas9 control and Rasa13-KO) was measured by MTT assay following 72 hrs incubation with macropinocytotic inhibitor, EIPA. The bar graphs represent the absorbance of the MTT formazan determined at 570 nm from a single experiment representative of a total 3 independent experiments, each performed in quadruplicate. Statistical significance was determined by one-way ANOVA. (FIG. 10B) Quantitation of EpCAM-positive epithelial cells were achieved by FACS of 3D co-cultures of human C4-2B epithelia and wild type (WT) or Ras^V12 mouse fibroblasts. Statistical significance was determined by unpaired t test. (FIG. 10C) Stromal fibroblasts (Cas9 or Rasa13-KO) cultured with CWR22Rv1 epithelia using a standard transwell apparatus. […] Epithelial and stromal cells grown in glutamine free either DMEMF12 or RPMI media. are expressed as mean±SEM of 3 independent experiments. Statistical significance was determined by two-tailed student's t test. **P<0.01, ****P<0.0001.
# [6] = test system: mouse prostatic fibroblasts (Cas9 control); experiment: MTT viability assay, control (Cas9 / wild type) fibroblasts; type: cell-based; conditions: 72 hrs incubation with EIPA
# Method: as §3
# CWR22Rv1 = experiment: MTT viability assay, CWR22Rv1; type: cell-based, human; conditions: CWR22Rv1, 72 hrs incubation with EIPA
# Method: as §3
# [7] = test system: CWR22Rv1 and Ras^V12 mouse fibroblast tissue recombinants; experiment: Orthotopic tissue recombinant xenograft, EIPA treatment; type: in vivo; conditions: SCID mice, anterior prostate grafts; EIPA for 1 week from two weeks after grafting, vs vehicle control; P<0.01 (FIG. 2H)
# Description: (§4) Tissue recombination mouse models.
# To directly determine if Ras signaling confers a tumor supportive role associated with CAF, we used CRISPR/Cas9 to knock out Rasa13 in mouse prostatic fibroblasts. Compared to the expression of Cas9 fibroblasts (control), Ras activity and ERK phosphorylation was elevated in Rasa13-knockout (Rasa13-KO) fibroblasts (FIG. 2D). Rasa13-KO fibroblasts took up TMR dextran, whereas it was undetectable in the control fibroblasts (FIG. 2E). The exogenous expression of active Ras^V12 (Gly^12→Val^12) in wild-type mouse prostatic fibroblasts replicated the downstream ERK activation and macropinocytosis observed in CAF and Rasa13-KO cells (FIG. 2 F,G). Thus, epigenetic RASAL3 silencing of prostatic fibroblasts promoted familiar signaling and macropinocytosis associated with Ras transformation (Commisso et al., 2013). […] To test the role of stromal Ras-mediated macropinocytosis on tumor development, orthotopic PCa xenograft models were used. Tissue recombinants of Ras^V12-expressing fibroblasts and CWR22Rv1 epithelia were grafted into the anterior prostates of SCID mice. Two weeks later, mice were treated with vehicle control or EIPA for 1 week to suppress macropinocytosis (FIG. 2H). […] Thus, glutamine uptake by the tumor was necessary for its expansion.
# CWR22Rv1 cells [8] = experiment: Seahorse XF-24 metabolic flux analysis, CWR22Rv1; type: cell-based, human; conditions: CWR22Rv1 in Ras^V12 fibroblast-CM; GPNA 10 μM
# Method: (§5) Seahorse XF-24 metabolic flux analysis. Oxygen consumption rate (OCR, pmol min-1) was measured with the Searhorse Bioscience XF24 extracellular flux analyzer. Cells were incubated in a CO2-free incubator for 1 h at 37° C. to allow for temperature and pH equilibration prior to loading into the XF24 apparatus. Initial assays were performed to optimize cell number, FCCP concentration and oligomycin concentration (data not shown). We used L-Glutamic acid γ-(p-nitroanilide) hydrochloride (GPNA, 10 μM), a specific glutamine […] inhibitor.
# [9] = test system: CWR22Rv1 and CAF tissue recombinants; experiment: Sub-renal capsule tissue recombinant xenograft, intact mice; type: in vivo, mouse; conditions: GPNA vs control
# Description: as §4
# C4-2B cells = experiment: Seahorse XF-24 metabolic flux analysis, C4-2B; type: cell-based, human; conditions: C4-2B in Ras^V12 fibroblast-CM; GPNA 10 μM
# Method: as §5
# [10] = test system: CWR22Rv1 and CAF tissue recombinants; experiment: Castrate resistant sub-renal capsule xenograft (castration + enzalutamide)
# Method: Tissue recombination mouse models. Cell recombinants were prepared by mixing 2×10^5 epithelial (CWR22Rv1) cells with 6×10^5 CAFs or stromal cells expressing KRAS^V12 per site in collagen as described before (Banerj ee J, Mishra R, Li X, Jackson R S, 2nd, Sharma A, and Bhowmick N A. A reciprocal role of prostate cancer on stromal DNA damage. Oncogene. 2014; 33(41):4924-31). The mice were either left intact or castrated 1 week after grafting. […] Castrated mice were treated with enzalutamide (5 mg/kg) either alone or in combination with L-glutamic acid Υ-(p-nitroanilide) hydrochloride (GPNA; 10 mg/kg; Sigma-Aldrich) for three weeks. The tumor volumes were measured using digital calipers and calculated using the following formula: length (mm)×width (mm)×width (mm)×0.52. When the mice were sacrificed and tumors were excised and photographed. Formalin-fixed, paraffin-embedded (FFPE) xenograft tumor tissue was sectioned and stained with hematoxylin and eosin (H&E) and staining for chromogranin A, TUNEL, phosphorylated-hi stone H3 and phosphorylated-mTOR.
# [11] = castrated, enzalutamide treated mice, addition of GPNA
smiles,measurement,setting,value
Nc1ncn([C@H]2C[C@H](O)[C@@H](CO)O2)c(=O)n1 [5-aza-2′-deoxycytidine],RASAL3 mRNA expression in CAF,RASAL3 mRNA in CAF,restored
same,methylation of the RASAL3 promoter (methylation specific PCR),RASAL3 promoter,hypomethylation
same,TMR-dextran uptake by CAF (macropinocytosis),primary CAF,inhibited
"C[C@]12CC[C@H](O)CC1=CC[C@@H]1[C@@H]2CC[C@]2(C)C(c3cccnc3)=CC[C@@H]12 [A, Abiraterone]",PSA on treatment,[1],26.2 and 6.4
"O=C(Cc1ccccc1)Nc1nnc(CCSCCc2nnc(NC(=O)Cc3ccccc3)s2)s1 [BPTES, bis-2(5-phenylacetamido-1,3,4-thiadiazol-2-yl)ethyl sulfide]",mRNA expression of the panel of neuroendocrine biomarker genes,CWR22Rv1 with CAF,significantly reduced
same,"epithelial proliferation (Ki-67 staining of EpCAM+ cells, FACS)",CWR22Rv1 cells [2],significantly decreased epithelial proliferation
same,enzalutamide-induced TET2 expression,[3],downregulates
same,CD47 expression (FACS),PD1 and CD47 on CWR22Rv1,downregulated
same,PD1 expression (FACS),PD1 and CD47 on CWR22Rv1,downregulated
same,enzalutamide-upregulated ALDH,[4]; epithelial culture without stromal fibroblasts (FIG. 17B),can be limited
"CCN(c1nc(N)c(C(=O)N=C(N)N)nc1Cl)C(C)C [EIPA, 5-(N-ethyl-N-isopropyl) amiloride]",viability (MTT),[5],reduced the viability
same,viability (MTT),[6],no significant effect
same,viability (MTT),CWR22Rv1,no significant effect
same,TMR-dextran uptake by CAF (macropinocytosis),primary CAF,inhibited
same,tumor size,[7],dramatically reduced tumor size
"N[C@@H](CCC(=O)Nc1ccc([N+](=O)[O-])cc1)C(=O)O [GPNA, L-gamma-glutamyl-p-nitroanilide]",mRNA expression of the panel of neuroendocrine biomarker genes,CWR22Rv1 with CAF,significantly reduced
same,"epithelial proliferation (Ki-67 staining of EpCAM+ cells, FACS)",CWR22Rv1 cells [2],significantly decreased epithelial proliferation
same,"basal respiration, ATP, and maximal respiration (OCR)",CWR22Rv1 cells [8],"restored basal respiration, ATP, and maximal respiration to that observed with wild type fibroblast-CM"
same,mitotic index (phosphorylated-histone H3),[9]; P<0.0001,reduced
same,tumor volume,[9]; P<0.001,reduced tumor volume
same,"basal respiration, ATP, and maximal respiration (OCR)",C4-2B cells,"restored basal respiration, ATP, and maximal respiration to that observed with wild type fibroblast-CM"
same,cell death (TUNEL),"[10]; GPNA + ADT vs ADT alone, P<0.001",elevated
same,localization of phosphorylated-mTOR (Ser-2481),"[10]; GPNA + ADT vs ADT alone, P<0.05",reduced
same,mitotic index (phosphorylated histone H3),[10]; GPNA + ADT vs androgen signaling blockage alone,did not significantly change
same,tumor size,"[10]; castrated mice, enzalutamide 5 mg/kg + GPNA 10 mg/kg for three weeks vs ADT alone, P<0.0001",significantly reduced tumor size
same,chromogranin A expression induced by castration and enzalutamide,[10]; [11],reduced chromogranin A expression
same,histology (H&E),[10]; [11],associated with karyolytic cells
"CCNC(=O)[C@@H]1CCCN1C(=O)[C@H](CCCNC(=N)N)NC(=O)[C@H](CC(C)C)NC(=O)[C@@H](CC(C)C)NC(=O)[C@H](Cc1ccc(O)cc1)NC(=O)[C@H](CO)NC(=O)[C@H](Cc1c[nH]c2ccccc12)NC(=O)[C@H](Cc1c[nH]cn1)NC(=O)[C@@H]1CCC(=O)N1 [L, Leuprolide]",PSA on treatment,[1],<0.1 and 7.8 and 0.1 and 1.1 and 1.2 and 0.2
same,Outcome,"[1]; individual PCa patient, responsiveness to ADT based on serum PSA",Responsive (4×) and Non- (2×)
CC(O)(CS(=O)(=O)c1ccc(F)cc1)C(=O)Nc1ccc(C#N)c(C(F)(F)F)c1 (stereo not shown) [bicalutamide],PSA on treatment,[1],11.3
N[C@@H](CCC(=O)O)C(=O)O [glutamate],ALDH (stem marker),"[4]; prostate cancer epithelial cells (FIG. 17A, 17B)",upregulates ALDH further
